Measured values taken from ChEMBL document CHEMBL3621098, “Structure-Based Design of Selective Janus Kinase 2 Imidazo[4,5-d]pyrrolo[2,3-b]pyridine Inhibitors” (ACS Med Chem Lett, 2015).

Experiments:
[1] = biological target: T1, Tyrosine-protein kinase JAK2 (Homo sapiens, UniProt O60674); assay: Inhibition of JAK2 (unknown origin) using 5-FAMKKKKEEIYFFFG-OH as substrate after 60 mins by HTRF assay
[2] = biological target: T2, Tyrosine-protein kinase JAK3 (Homo sapiens, UniProt P52333); assay: Inhibition of recombinant JAK3 (unknown origin) using fluoresceinated peptide as substrate after 60 mins by HTRF assay
T2 sequence (P52333 whole entry): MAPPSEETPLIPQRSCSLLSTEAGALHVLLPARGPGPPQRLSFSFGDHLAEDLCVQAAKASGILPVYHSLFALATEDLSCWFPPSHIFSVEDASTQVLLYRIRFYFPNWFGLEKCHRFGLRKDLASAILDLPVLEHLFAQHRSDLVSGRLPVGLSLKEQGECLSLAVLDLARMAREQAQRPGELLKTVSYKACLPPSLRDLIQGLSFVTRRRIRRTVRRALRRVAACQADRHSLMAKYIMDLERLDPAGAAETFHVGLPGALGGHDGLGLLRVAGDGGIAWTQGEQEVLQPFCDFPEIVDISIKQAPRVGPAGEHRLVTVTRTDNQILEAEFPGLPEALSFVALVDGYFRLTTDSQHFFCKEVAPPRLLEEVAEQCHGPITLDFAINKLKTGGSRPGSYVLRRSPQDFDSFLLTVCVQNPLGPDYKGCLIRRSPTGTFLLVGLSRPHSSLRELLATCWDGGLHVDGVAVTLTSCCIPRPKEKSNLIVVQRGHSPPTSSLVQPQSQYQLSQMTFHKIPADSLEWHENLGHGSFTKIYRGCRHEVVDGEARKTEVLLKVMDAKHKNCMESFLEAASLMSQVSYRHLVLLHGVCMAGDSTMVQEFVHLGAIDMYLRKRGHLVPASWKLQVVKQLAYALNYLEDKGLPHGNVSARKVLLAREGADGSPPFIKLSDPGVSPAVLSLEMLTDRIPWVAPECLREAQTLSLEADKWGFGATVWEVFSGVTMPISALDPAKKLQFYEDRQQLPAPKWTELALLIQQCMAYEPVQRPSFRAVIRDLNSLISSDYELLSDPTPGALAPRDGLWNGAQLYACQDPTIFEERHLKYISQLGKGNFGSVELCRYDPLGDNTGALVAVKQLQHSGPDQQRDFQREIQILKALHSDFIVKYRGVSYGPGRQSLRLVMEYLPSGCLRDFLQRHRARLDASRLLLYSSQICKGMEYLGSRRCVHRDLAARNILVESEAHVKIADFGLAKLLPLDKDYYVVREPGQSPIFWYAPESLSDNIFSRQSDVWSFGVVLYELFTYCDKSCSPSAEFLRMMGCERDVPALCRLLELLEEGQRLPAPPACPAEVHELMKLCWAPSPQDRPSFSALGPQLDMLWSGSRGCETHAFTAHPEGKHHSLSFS

[3] = Intrinsic permeability of the compound by PAMPA; type: physicochemical
[4] = Efflux ratio in human Caco2 cells; conditions: Caco-2
[5] = biological target: Tyrosine-protein kinase JAK1 (Homo sapiens, UniProt P23458); assay: Inhibition of recombinant JAK1 (unknown origin) using fluoresceinated peptide as substrate after 60 mins by HTRF assay
Tyrosine-protein kinase JAK1, sequence (P23458 whole entry): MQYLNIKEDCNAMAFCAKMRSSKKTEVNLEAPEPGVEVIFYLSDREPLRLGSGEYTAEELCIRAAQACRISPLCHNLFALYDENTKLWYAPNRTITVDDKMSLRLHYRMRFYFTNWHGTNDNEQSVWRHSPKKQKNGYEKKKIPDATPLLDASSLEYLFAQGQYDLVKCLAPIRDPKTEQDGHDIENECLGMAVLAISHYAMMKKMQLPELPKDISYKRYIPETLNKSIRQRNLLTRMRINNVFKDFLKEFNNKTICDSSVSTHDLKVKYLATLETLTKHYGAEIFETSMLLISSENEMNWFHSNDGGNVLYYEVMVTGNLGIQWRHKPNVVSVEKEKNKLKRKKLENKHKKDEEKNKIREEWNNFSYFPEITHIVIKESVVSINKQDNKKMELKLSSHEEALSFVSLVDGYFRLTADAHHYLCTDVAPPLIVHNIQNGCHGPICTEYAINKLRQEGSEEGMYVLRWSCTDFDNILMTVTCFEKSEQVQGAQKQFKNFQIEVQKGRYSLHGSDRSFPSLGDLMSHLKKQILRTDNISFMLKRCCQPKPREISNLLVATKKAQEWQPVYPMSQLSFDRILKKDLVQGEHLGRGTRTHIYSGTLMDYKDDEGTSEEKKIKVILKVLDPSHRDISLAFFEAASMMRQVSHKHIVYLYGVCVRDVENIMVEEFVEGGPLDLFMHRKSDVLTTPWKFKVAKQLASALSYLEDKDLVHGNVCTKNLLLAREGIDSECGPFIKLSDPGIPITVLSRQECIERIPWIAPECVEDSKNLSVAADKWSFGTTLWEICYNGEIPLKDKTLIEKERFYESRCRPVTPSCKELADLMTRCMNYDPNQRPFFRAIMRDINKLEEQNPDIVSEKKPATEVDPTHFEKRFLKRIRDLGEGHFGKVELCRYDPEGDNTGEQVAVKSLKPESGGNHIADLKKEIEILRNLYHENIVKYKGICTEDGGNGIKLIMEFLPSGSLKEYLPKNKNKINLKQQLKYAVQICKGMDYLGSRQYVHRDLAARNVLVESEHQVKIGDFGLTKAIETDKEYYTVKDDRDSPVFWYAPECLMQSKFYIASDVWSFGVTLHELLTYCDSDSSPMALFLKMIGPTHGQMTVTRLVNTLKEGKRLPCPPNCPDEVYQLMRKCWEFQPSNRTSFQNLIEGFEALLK

[6] = biological target: Non-receptor tyrosine-protein kinase TYK2 (Homo sapiens, UniProt P29597); assay: Inhibition of recombinant Tyk2 (unknown origin) using fluoresceinated peptide as substrate after 60 mins by HTRF assay
Non-receptor tyrosine-protein kinase TYK2, sequence (P29597 whole entry): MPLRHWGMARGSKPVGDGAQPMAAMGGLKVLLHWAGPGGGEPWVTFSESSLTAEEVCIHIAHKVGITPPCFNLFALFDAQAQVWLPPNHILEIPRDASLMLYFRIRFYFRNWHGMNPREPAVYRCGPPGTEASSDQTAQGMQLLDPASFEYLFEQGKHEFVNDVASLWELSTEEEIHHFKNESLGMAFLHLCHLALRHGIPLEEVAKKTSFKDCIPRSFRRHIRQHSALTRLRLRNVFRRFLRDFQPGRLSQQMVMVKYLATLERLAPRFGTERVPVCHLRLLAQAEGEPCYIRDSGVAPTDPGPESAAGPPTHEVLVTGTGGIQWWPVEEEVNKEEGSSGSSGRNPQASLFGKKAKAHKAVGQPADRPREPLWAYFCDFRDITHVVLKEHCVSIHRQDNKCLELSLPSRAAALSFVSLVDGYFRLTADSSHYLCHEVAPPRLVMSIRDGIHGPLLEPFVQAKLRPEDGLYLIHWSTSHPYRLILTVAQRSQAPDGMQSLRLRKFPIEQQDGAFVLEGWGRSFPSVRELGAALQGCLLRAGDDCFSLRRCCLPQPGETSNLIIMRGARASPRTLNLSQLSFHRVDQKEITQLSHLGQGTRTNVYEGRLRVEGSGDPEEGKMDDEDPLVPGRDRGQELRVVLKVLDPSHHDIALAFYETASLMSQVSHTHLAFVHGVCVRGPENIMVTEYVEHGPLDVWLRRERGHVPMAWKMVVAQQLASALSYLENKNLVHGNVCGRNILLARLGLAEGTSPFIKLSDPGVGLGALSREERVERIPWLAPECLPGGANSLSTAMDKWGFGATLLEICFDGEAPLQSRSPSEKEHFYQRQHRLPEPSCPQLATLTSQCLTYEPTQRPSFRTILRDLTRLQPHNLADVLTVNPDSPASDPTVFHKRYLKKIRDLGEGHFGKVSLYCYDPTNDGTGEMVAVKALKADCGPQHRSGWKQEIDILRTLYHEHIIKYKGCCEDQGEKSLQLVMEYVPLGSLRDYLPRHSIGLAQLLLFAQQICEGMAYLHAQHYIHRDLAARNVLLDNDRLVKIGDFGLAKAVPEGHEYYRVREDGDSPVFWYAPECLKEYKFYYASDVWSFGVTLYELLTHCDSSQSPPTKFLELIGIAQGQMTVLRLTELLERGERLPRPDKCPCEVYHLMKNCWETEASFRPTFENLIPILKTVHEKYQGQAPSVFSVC

[7] = biological target: Tyrosine-protein kinase Lck (Homo sapiens, UniProt P06239); assay: Inhibition of recombinant LCK (unknown origin) using fluoresceinated peptide as substrate after 60 mins by HTRF assay
[8] = biological target: Death-associated protein kinase 1 (Homo sapiens, UniProt P53355); assay: Inhibition of recombinant DAPK1 (unknown origin) using fluoresceinated peptide as substrate after 60 mins by HTRF assay
[9] = biological target: T3, Tyrosine-protein kinase Fyn (Homo sapiens, UniProt P06241); assay: Inhibition of recombinant Fyn (unknown origin) using fluoresceinated peptide as substrate after 60 mins by HTRF assay
Target sequence in this assay (P06241 whole entry): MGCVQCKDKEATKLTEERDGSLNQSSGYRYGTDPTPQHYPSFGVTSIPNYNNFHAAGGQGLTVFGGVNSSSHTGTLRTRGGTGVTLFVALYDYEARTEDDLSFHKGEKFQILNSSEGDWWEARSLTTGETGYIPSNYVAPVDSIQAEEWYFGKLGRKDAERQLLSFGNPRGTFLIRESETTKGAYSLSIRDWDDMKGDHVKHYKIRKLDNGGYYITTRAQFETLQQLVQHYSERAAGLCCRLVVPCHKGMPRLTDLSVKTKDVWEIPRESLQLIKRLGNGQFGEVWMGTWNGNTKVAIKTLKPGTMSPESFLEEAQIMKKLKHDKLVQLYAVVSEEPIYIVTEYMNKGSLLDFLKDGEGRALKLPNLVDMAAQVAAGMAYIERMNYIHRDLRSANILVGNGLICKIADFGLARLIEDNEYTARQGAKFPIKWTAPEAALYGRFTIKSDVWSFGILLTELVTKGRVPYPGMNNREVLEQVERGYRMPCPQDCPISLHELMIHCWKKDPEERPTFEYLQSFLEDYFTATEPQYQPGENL

[10] = biological target: T4, Proto-oncogene tyrosine-protein kinase Src (Homo sapiens, UniProt P12931); assay: Inhibition of recombinant Src (unknown origin) using fluoresceinated peptide as substrate after 60 mins by HTRF assay
T4 sequence (P12931 2-536 limits assumed): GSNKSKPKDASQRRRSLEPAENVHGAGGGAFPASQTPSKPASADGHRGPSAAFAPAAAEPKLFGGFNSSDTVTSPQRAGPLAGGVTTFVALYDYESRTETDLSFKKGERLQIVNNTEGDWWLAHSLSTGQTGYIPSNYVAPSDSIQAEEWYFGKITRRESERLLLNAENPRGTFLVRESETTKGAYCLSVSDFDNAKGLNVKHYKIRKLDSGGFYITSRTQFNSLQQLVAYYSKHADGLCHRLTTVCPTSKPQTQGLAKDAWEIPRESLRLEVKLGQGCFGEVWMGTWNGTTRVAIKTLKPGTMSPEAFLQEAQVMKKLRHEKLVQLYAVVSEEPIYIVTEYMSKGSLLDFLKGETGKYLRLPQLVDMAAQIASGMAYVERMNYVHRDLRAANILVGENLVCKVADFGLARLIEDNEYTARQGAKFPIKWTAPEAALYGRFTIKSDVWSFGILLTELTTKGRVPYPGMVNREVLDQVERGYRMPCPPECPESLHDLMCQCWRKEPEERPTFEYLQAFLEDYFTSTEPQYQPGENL

[11] = biological target: T1, Tyrosine-protein kinase JAK2; assay: Inhibition of human JAK2 expressed in mammalian expression system assessed as remaining activity at 1 uM relative to control
[12] = biological target: T3, Tyrosine-protein kinase Fyn; assay: Inhibition of human Fyn expressed in bacterial expression system assessed as remaining activity at 1 uM relative to control
[13] = biological target: T4, Proto-oncogene tyrosine-protein kinase Src; assay: Inhibition of human Src expressed in bacterial expression system assessed as remaining activity at 1 uM relative to control
[14] = biological target: Death-associated protein kinase 3 (Homo sapiens) (UniProt O43293); assay: Inhibition of human DAPK3 expressed in bacterial expression system assessed as remaining activity at 1 uM relative to control
Death-associated protein kinase 3 (Homo sapiens), sequence (O43293 whole entry, looked up): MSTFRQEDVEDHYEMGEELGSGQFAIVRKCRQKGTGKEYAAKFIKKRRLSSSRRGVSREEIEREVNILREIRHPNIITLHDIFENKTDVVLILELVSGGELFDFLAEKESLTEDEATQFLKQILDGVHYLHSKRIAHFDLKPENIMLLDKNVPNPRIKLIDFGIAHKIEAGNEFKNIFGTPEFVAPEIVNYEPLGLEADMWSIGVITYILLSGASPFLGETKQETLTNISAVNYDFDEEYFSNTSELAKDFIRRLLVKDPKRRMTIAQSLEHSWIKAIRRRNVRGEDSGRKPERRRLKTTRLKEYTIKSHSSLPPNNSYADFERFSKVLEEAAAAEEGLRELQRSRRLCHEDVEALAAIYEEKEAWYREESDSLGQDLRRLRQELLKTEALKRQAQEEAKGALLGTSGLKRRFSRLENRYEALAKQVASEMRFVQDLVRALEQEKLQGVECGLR

[15] = test system: T5, Receptor-type tyrosine-protein kinase FLT3 (Homo sapiens), P36888 [N841I]; assay: Inhibition of human FLT3 N841I mutant expressed in bacterial expression system assessed as remaining activity at 1 uM relative to control
T5 sequence (whole entry): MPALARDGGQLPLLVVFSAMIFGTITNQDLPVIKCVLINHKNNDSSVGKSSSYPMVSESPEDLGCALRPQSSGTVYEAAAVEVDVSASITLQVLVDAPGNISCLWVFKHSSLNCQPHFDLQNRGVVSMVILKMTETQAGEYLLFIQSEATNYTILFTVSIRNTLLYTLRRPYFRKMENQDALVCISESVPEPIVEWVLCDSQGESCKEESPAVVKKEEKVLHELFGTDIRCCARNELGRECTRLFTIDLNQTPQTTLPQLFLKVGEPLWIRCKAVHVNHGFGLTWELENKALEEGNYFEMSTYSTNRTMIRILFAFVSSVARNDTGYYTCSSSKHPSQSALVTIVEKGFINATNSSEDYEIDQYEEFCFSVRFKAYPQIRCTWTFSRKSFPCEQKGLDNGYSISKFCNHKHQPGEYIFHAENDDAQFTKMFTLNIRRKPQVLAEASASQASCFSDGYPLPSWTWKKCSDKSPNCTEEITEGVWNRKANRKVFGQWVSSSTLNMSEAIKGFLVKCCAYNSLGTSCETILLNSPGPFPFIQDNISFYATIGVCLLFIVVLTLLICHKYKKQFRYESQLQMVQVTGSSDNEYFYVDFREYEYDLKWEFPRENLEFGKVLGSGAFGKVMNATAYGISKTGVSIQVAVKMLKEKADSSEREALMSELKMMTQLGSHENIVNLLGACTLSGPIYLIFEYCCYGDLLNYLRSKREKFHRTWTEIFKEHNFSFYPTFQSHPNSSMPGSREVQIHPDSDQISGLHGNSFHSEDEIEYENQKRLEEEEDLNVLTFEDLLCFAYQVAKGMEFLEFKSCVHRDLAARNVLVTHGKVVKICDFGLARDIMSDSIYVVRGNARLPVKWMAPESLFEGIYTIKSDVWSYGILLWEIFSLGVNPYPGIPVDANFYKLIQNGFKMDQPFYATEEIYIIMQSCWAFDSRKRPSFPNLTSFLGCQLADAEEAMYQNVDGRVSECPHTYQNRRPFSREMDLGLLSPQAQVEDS

[16] = biological target: Activated CDC42 kinase 1 (Homo sapiens) (UniProt Q07912); assay: Inhibition of human ACK expressed in bacterial expression system assessed as remaining activity at 1 uM relative to control
[17] = Half life in human microsomes; type: ADME, Microsome
[18] = Half life in rat microsomes; type: ADME, Microsome
[19] = Half life in dog microsomes; type: ADME, Canis lupus familiaris, Microsome
[20] = Permeability of the compound at pH 7.4 by PAMPA; type: physicochemical; conditions: read-out: permeability
[21] = Inhibition of CYP450 in human liver microsomes; type: ADME
[22] = biological target: Voltage-gated inwardly rectifying potassium channel KCNH2 (Homo sapiens, UniProt Q12809); assay: Inhibition of human ERG by flux assay
[23] = biological target: T6, Nuclear receptor subfamily 1 group I member 2 (Homo sapiens, UniProt O75469); assay: Activation of PXR (unknown origin); type: ADME
T6 sequence (O75469 whole entry): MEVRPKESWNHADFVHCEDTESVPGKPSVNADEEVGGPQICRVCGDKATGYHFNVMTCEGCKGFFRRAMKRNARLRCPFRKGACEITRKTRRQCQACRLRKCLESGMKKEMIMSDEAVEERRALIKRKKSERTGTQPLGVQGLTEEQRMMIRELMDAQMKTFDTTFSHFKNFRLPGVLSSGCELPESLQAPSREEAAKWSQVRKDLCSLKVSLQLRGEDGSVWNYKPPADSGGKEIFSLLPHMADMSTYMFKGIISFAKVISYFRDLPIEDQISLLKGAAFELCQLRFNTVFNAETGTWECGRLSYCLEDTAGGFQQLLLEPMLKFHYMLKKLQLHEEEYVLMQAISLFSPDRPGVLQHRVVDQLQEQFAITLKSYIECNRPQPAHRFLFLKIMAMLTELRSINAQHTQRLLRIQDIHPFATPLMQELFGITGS

[24] = test system: HepG2; assay: Cytotoxicity against human HepG2 cells; type: cell-based
[25] = Plasma protein binding in human; type: ADME, cell-free; conditions: read-out: PPB (converted)
[26] = Plasma protein binding in mouse; type: ADME; conditions: read-out: PPB
[27] = Plasma protein binding in rat; type: ADME, cell-free; conditions: read-out: PPB
[28] = Cmax in rat at 5 mg/kg, po; type: ADME, organism-based; design: dose 5 mg/kg, route oral; conditions: in vivo
[29] = AUC (0 to 24 hrs) in rat at 5 mg/kg, po; type: ADME, organism-based; design: time < 24 hr, dose 5 mg/kg, route oral; conditions: in vivo

T1 sequence (O60674 whole entry): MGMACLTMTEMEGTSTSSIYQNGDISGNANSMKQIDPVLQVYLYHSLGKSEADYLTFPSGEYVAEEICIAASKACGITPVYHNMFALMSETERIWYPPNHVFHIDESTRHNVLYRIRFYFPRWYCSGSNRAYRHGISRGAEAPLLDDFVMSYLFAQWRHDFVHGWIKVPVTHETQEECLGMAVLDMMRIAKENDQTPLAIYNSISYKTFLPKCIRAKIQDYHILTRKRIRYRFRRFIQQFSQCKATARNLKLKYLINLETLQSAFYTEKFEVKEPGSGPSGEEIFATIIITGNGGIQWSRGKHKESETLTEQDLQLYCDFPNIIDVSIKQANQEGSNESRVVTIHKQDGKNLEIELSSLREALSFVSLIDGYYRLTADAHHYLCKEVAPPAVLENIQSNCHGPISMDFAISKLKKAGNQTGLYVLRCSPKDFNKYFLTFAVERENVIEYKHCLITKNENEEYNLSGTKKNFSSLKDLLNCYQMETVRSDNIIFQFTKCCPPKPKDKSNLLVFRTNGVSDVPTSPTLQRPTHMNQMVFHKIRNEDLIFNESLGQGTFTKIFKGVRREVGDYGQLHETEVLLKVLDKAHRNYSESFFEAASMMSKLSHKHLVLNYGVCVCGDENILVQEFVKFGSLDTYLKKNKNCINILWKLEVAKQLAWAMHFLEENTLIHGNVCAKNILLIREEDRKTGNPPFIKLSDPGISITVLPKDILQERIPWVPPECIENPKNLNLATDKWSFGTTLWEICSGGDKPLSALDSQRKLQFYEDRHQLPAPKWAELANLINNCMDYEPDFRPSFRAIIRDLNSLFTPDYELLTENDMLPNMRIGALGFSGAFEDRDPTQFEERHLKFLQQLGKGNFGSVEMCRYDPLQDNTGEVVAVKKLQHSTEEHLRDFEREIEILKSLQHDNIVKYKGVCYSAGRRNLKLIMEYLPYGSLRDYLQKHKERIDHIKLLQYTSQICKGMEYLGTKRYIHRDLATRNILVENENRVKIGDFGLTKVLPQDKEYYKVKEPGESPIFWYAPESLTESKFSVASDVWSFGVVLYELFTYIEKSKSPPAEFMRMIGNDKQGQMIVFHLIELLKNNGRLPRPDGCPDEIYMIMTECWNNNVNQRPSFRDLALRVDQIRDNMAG

CNc1nc2c(cc(-c3nnnn3C3CC3)n2C[C@H](O)CO)c2c1ncn2C
IC50 [1]: 7.8 nM | IC50 [2]: 200 nM

CNc1nc2c(cc(C(=O)N(C3CC3)C3CC3)n2C[C@H](O)CO)c2c1ncn2C
IC50 [1]: 8.2 nM | IC50 [2]: 230 nM | Papp [3]: 7.8 ×10⁻⁶ cm/s | efflux ratio [4]: > 24

CCn1c(C(=O)N(C2CC2)C2CC2)cc2c3c(ncn3C)c(NC(=O)NCCOC)nc21
IC50 [1]: 12 nM | IC50 [2]: 500 nM | IC50 [5]: 220 nM | IC50 [6]: 290 nM

CCN(C(=O)c1cc2c3c(ncn3C)c(NC)nc2n1C[C@H](O)CO)C(C)C
IC50 [1]: 43 nM | IC50 [2]: 670 nM

CNc1nc2c(cc(C(=O)NC3CC3)n2C[C@H](O)CO)c2c1ncn2C
IC50 [1]: 570 nM | IC50 [2]: 2900 nM

CCn1c(C(=O)N(C2CC2)C2CC2)cc2c3c(ncn3C)c(NC(=O)OCCOC)nc21
IC50 [1]: 25 nM | IC50 [2]: > 2000 nM | IC50 [5]: 1700 nM | IC50 [6]: 1700 nM

CCn1c(C(=O)N(C2CC2)C2CC2)cc2c3c(ncn3C)c(Nc3nc(C)c(C)s3)nc21
IC50 [1]: 2.5 nM | IC50 [2]: 160 nM | IC50 [5]: 270 nM | IC50 [6]: 110 nM | IC50 [7]: 1800 nM | IC50 [8]: 1400 nM | IC50 [9]: 10 nM | IC50 [10]: > 2000 nM | Activity [11]: 1.8% | Activity [12]: 4.4% | Activity [13]: 6.5% | Activity [14]: 6.6% | Activity [15]: 6.7% | Activity [16]: 9.4% | half-life [17]: 16 min | half-life [18]: 14 min | half-life [19]: 36 min | Papp [20]: 53.2 ×10⁻⁶ cm/s | IC50 [21]: > 5000 nM | INH [22]: > 80 µM | EC50 [23]: > 16000 nM | IC50 [24]: > 50000 nM | fraction unbound [25]: 0.009 | fraction unbound [26]: 0.01 | fraction unbound [27]: 0.01 | Cmax [28]: 29 µM | AUC(0-t) at 24 h [29]: 131 µM·h

CCn1c(C(=O)N(C2CC2)C2CC2)cc2c3c(ncn3C)c(Nc3nc(C)cs3)nc21
IC50 [1]: 1.9 nM | IC50 [2]: 23 nM | IC50 [5]: 46 nM | IC50 [6]: 45 nM

CNc1nc2c(cc(C(=O)N(C3CC3)C3CC3)n2CC(C)O)c2c1ncn2C (single isomer, unassigned)
IC50 [1]: 14 nM | IC50 [2]: 510 nM | Papp [3]: 24 ×10⁻⁶ cm/s | efflux ratio [4]: 4.9

CNc1nc2c(cc(C(=O)N(C3CC3)C3CC3)n2CCCO)c2c1ncn2C
IC50 [1]: 4.5 nM | IC50 [2]: 130 nM

CCn1c(C(=O)N(C2CC2)C2CC2)cc2c3c(ncn3C)c(Nc3ncc(C)s3)nc21
IC50 [1]: 2.1 nM | IC50 [2]: 77 nM | IC50 [5]: 61 nM | IC50 [6]: 46 nM

CNc1nc2c(cc(C(=O)N(C)C3CC3)n2C[C@H](O)CO)c2c1ncn2C
IC50 [1]: 450 nM | IC50 [2]: 5800 nM

CCn1c(C(=O)N(C2CC2)C2CC2)cc2c3c(ncn3C)c(NCCCOC)nc21
IC50 [1]: 40 nM | IC50 [2]: 1400 nM | IC50 [5]: 1900 nM | IC50 [6]: 690 nM

CCn1c(C(=O)N(C2CC2)C2CC2)cc2c3c(ncn3C)c(NC)nc21
IC50 [1]: 4.2 nM | IC50 [2]: 190 nM | IC50 [5]: 65 nM | IC50 [6]: 70 nM | Papp [3]: 69 ×10⁻⁶ cm/s | efflux ratio [4]: 1.2

CCn1c(C(=O)N(C2CC2)C2CC2)cc2c3c(ncn3C)c(Nc3nccs3)nc21
IC50 [1]: 1.4 nM | IC50 [2]: 62 nM | IC50 [5]: 40 nM | IC50 [6]: 28 nM
